Laboratory results reported in ChEMBL document CHEMBL5518193, “Discovery of N-alkyl-N-benzyl thiazoles as novel TRPC antagonists for the treatment of glioblastoma multiforme” (Eur J Med Chem, 2024).

Key:
[1] = tested on: LNCaP; assay: Antiproliferative activity against human LNCaP cells assessed as reduction in cell viability incubated for 72 hrs by MTT assay; format: functional, cell-based
[2] = Cmax in BALB/c mouse at 50 mg/kg, ip administered as liposome encapsulated form and measured upto 24 hrs by LC-MS/MS analysis; format: ADME, organism-based; conditions: in vivo
[3] = tested on: MKN-45; assay: Antiproliferative activity against human MKN-45 cells assessed as reduction in cell viability incubated for 72 hrs by MTT assay; format: functional, cell-based; conditions: MKN-45, 72 h
[4] = biological target: T1, Short transient receptor potential channel 4 (Mus musculus, UniProt Q9QUQ5); assay: Antagonist activity at mouse TRPC4 stably expressed in HEK293 cells inhibition of calcium influx by calcium fluorescence assay; format: cell-based
T1 sequence (Q9QUQ5 whole entry): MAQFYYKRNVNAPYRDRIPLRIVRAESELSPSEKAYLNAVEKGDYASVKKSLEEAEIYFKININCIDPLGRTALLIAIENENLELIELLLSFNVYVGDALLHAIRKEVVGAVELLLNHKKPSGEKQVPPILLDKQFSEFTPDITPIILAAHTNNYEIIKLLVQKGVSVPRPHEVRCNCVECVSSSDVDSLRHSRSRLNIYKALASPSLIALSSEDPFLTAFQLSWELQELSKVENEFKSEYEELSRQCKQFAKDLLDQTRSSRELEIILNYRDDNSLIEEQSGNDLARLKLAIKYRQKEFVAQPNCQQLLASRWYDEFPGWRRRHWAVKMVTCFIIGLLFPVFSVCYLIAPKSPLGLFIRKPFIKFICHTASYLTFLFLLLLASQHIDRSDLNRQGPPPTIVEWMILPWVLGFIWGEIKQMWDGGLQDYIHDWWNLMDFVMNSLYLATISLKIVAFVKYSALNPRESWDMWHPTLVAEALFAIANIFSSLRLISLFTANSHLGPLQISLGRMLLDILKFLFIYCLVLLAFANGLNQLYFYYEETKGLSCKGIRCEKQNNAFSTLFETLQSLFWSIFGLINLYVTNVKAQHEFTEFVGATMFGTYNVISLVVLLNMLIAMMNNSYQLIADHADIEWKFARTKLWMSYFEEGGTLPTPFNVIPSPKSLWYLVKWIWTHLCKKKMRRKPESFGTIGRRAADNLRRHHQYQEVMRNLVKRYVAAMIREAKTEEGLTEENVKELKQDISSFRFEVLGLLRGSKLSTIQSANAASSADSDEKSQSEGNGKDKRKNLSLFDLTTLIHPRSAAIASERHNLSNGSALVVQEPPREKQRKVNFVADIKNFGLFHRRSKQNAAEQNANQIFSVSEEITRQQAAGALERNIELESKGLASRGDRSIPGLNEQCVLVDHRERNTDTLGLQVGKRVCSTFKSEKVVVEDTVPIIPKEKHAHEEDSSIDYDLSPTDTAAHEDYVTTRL

[5] = tested on: A549; assay: Antiproliferative activity against human A549 cells assessed as reduction in cell viability incubated for 72 hrs by MTT assay; format: functional, cell-based; conditions: A549, 72 h
[6] = Cmax in BALB/c mouse at 25 mg/kg, ip administered as liposome encapsulated form and measured upto 24 hrs by LC-MS/MS analysis; format: ADME, organism-based; conditions: in vivo
[7] = tested on: HCT-116; assay: Antiproliferative activity against human HCT-116 cells assessed as reduction in cell viability incubated for 72 hrs by MTT assay; format: functional, cell-based; conditions: HCT-116, 72 h
[8] = Selectivity index, ratio of IC50 for human MKN-45 cells to IC50 for human U87 cells; format: functional
[9] = Toxicity against BALB/c nude mouse xenografted with human U87 cells assessed as mortality at 12.5 to 50 mg/kg/day administered as liposome encapsulated form for 15 days; format: organism-based, U-87MG ATCC; conditions: in vivo, 360 h, dose 12.5-50 mg/kg/day, time 15 day
[10] = AUC (0 to t) in BALB/c mouse at 50 mg/kg, ip administered as liposome encapsulated form and measured upto 24 hrs by LC-MS/MS analysis; format: ADME, organism-based; conditions: in vivo
[11] = biological target: T2, Short transient receptor potential channel 5 (Homo sapiens, UniProt Q9UL62); assay: Antagonist activity at human TRPC5 stably expressed in HEK293 cells inhibition of calcium influx by calcium fluorescence assay; format: cell-based
T2 sequence (Q9UL62 whole entry): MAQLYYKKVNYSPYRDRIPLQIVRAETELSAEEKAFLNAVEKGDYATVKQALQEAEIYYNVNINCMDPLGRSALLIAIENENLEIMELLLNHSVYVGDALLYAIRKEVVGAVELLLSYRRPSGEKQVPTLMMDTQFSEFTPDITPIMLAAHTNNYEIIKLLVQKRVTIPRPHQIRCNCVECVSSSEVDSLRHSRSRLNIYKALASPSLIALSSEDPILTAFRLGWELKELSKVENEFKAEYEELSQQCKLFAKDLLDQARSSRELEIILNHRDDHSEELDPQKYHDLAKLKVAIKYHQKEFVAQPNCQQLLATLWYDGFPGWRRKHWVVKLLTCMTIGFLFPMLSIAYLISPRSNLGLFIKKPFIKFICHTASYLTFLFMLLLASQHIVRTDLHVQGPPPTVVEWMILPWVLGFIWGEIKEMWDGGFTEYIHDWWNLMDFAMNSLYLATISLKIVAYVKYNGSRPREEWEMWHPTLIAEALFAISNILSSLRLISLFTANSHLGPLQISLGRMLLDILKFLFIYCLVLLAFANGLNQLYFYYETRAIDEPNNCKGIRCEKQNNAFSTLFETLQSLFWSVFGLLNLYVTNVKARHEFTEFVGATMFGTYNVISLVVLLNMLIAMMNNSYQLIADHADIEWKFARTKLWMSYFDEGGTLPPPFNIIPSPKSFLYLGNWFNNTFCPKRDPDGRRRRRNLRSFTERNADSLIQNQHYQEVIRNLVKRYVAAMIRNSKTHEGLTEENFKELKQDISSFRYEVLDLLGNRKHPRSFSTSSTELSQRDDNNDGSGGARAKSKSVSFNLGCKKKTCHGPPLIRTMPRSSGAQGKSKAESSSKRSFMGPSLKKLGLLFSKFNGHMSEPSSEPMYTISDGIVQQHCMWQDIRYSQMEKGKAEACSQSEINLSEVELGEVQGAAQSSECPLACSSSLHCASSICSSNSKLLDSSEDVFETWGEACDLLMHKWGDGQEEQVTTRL

[12] = Terminal half life in BALB/c mouse at 12.5 mg/kg, ip administered as liposome encapsulated form and measured upto 24 hrs by LC-MS/MS analysis; format: ADME, organism-based; conditions: in vivo, read-out: beta t1/2 (converted)

For NCCN(Cc1ccc2ccccc2c1)c1nc(C(=O)Nc2ccc(O)cc2)cs1, the IC50 [1] was 8.3 µM, the Cmax [2] was 2910 ng/mL and the IC50 [3] was 11 µM. The IC50 [4] was 12.2 µM, the IC50 [5] was 21.1 µM and the Cmax [6] was 1220 ng/mL. The IC50 [7] was 9.8 µM, the “Ratio IC50” value [8] was 2 and the Activity [9] was “Non-Toxic”. The AUC(0-t) at 24 h [10] was 16600 ng·h/mL, the IC50 [11] was 7.6 µM and the half-life [12] was 6.8 h.
